Source: US9187415B2, “Sulfonamides as HIV protease inhibitors” (Merck Canada Inc., priority 2010, dated 2015)
Where two headings read alike, the source gives them in different places.

Key:
[1] = molecular target: T1, HIV-1 protease (wild type) (Human immunodeficiency virus type 1 group M subtype B, UniProt P04585); assay: Protease Inhibition Assay (Pepcleave), inhibition of microbial expressed HIV protease; type: biochemical
T1 construct: made in house; host or cells: Escherichia coli
Method: Assay for Inhibition of Microbial Expressed HIV Protease
Inhibition studies of the reaction of the protease (which was expressed in Eschericia coli) with a peptide substrate [Val-Ser-Gln-Asn-(betanaphtyl)Ala-Pro-Ile-Val]. The inhibitor is first preincubated with the HIV-1 protease (wild type) enzyme in assay buffer (50 mM sodium acetate, pH 5.5, 100 mM NaCl, and 0.1% BSA) for 30 minutes at room temperature. Substrate is added to 400 micromolar in a total volume of 80 microliters containing 10 picomolar HIV-1 protease and the reaction is incubated for 1 hour at 30° C. The reaction is quenched with the addition of 120 microliters of 10% phosphoric acid. The product formation is determined after separation of product and substrate on a Zorbax Eclipse XDB-C18 column connected to an Agilent 1100 high performance liquid chromatography system with fluorescence detection (excitation 270 nanometer and emission 330 nanometer). Alternatively, the inhibitor is preincubated with enzyme and substrate as described above, but in a total volume of 20 microliters containing 20 picomolar HIV-1 protease and the reaction is incubated for 1 hour at 30° C. The reaction is quenched with the addition of 30 microliters of 1 micromolar indinavir (indinavir is also used as an internal standard), and the product formation is determined after separation of product and substrate on a Zorbax Eclipse XDB-C18 column connected to an API 4000 mass spectrometer (Applied Biosystems) with multiple reaction monitoring (transitions were 644.5/428.9 and 615.4/422.2 (M1/M3) for product and indinavir respectively). The extent of inhibition of the reaction is determined from the peak area of the products. HPLC of the products, independently synthesized, provided quantitation standards and confirmation of the product composition.
Protease Inhibition Assay (“Pepcleave”) data were collected based on the wild-type HIV-1 protease enzyme. The assay monitors the cleavage of a 8-mer peptide (VSQN[β-Nal]PIV) where the tyrosine at P1 position is replaced by β-Naphthyl-alanine. Upon cleavage of the peptide by HIV-1 protease, the product is separated from substrate by HPLC column and detected at Ex.=270 nm/Em=330 nm.

[2] = system: human immunodeficiency virus type 1; assay: Acute Infection Assay (Spread); type: cell-based, HIV-1
From the text: Acute Infection Assay (“Spread”) data were generated in 10% FBS, and according to the methods disclosed by J. P. Vacca et al, “L-735,524: An orally bioavailable human immunodeficiency virus type 1 protease inhibitor,” Proc. Nati. Acad. Sci. USA, Vol. 91, pp. 4096-4100 (April 1994).

[3] = wild-type HIV-1 protease, mean of at least two independent experiments, read-out: Pepcleave Enzyme inhibition IC50
[4] = Human immunodeficiency virus 1, 10% FBS, mean of at least two independent experiments, read-out: Spread IC95

Row | SMILES | IC50 [1, 3] [nM] | IC95 [2, 4] [nM] | IC95 ([2]; Human immunodeficiency virus 1, read-out: Spread IC95) [nM] | IC50 [1] [nM]
1 | COC(=O)N[C@H](C(=O)Nc1cccnc1CC[C@@H](CO)N(Cc1cnoc1)S(=O)(=O)c1ccc2ncsc2c1)C(c1ccccc1)c1ccccc1 [Example 18, N-(2-{(3S)-3-[(1,3-benzothiazol-6-ylsulfonyl)(isoxazol-4-ylmethyl)amino]-4-hydroxybutyl}pyridin-3-yl)-Nα-(methoxycarbonyl)-β-phenyl-L-phenylalaninamide] | 2.3 | 755 |  | 
2 | COC(=O)N[C@@H](Cc1ccccc1Cl)C(=O)Nc1ccccc1CC[C@@H](CO)N(Cc1cn[nH]c1)S(=O)(=O)c1ccc(N)cc1 [Example 15, N-{2[(3S)-3-{[(4-aminophenyl)sulfonyl](1H-pyrazol-4-ylmethyl)amino}-4-hydroxybutyl]phenyl}-2-chloro-Nα-(methoxycarbonyl)-L-phenylalaninamide] | 1.8 | 2440 |  | 
3 | COC(=O)N[C@H](C(=O)Nc1cnccc1SC[C@@H](CO)N(CC(C)C)S(=O)(=O)c1ccc2ncsc2c1)C(c1ccccc1)c1ccccc1 [Example 24, N-[4-({(2R)-2-[(1,3-benzothiazol-6-ylsulfonyl)(2-methylpropyl)amino]-3-hydroxypropyl}sulfanyl)pyridin-3-yl]-Nα-(methoxycarbonyl)-β-phenyl-L-phenylalaninamide] | 4.2 | 1120 |  | 
4 | COC(=O)N[C@H](C(=O)Nc1ccccc1CC[C@@H](CO)N(CC1CC1)S(=O)(=O)c1ccc(N)cc1)C(c1ccccc1)c1ccccc1 [Example 3, N-{2-[(3S)-3-{[(4-aminophenyl)sulfonyl](cyclopropylmethyl)amino}-4-hydroxybutyl]phenyl}-Nα-(methoxycarbonyl)-β-phenyl-L-phenylalaninamide] | 0.2 |  | 307 | 
5 | COC(=O)N[C@H](C(=O)Nc1cccc(C[C@@H](CO)N(C(C)C)S(=O)(=O)c2ccc(N)cc2)c1)C(c1ccccc1)c1ccccc1 [Example 34, N-{3-[(2S)-2-{[(4-aminophenyl)sulfonyl](propan-2-yl)amino}-3-hydroxypropyl)phenyl}-Nα-(methoxycarbonyl)-β-phenyl-L-phenylalaninamide] | 41.6 |  |  | 
6 | COC(=O)N[C@H](C(=O)Nc1cccc(C[C@@H](CO)N(C(C)C)S(=O)(=O)c2ccc(CO)cc2)c1)C(c1ccccc1)c1ccccc1 [Example 35, N-(3-{(2S)-3-hydroxy-2[{[4-(hydroxymethyl)phenyl]sulfonyl}(propan-2-yl)amino]propyl}phenyl)-Nα-(methoxycarbonyl)-β-phenyl-L-phenylalaninamide] | 18.9 |  |  | 
7 | COC(=O)N[C@@H](Cc1ccccc1Cl)C(=O)Nc1ccccc1CC[C@@H](CO)N(CCC(C)C)S(=O)(=O)c1ccc(N)cc1 [Example 14, N-{2-[(3S)-3-{[(4-aminophenyl)sulfonyl](3-rnethylbutyl)amino}-4-hydroxybutyl]phenyl}-2-chloro-Nα-(methoxycarbonyl)-L-phenylalaninamide] | 1.2 | 1180 |  | 
8 | COC(=O)N[C@H](C(=O)Nc1c(SC[C@@H](CO)N(CCC(C)C)S(=O)(=O)c2ccc(N)cc2)cc[nH]c1=O)C(c1ccccc1)c1ccccc1 [Example 23, N-(4-{[(2R)-2-{[(4-aminophenyl)sulfonyl](3-methylbutyl)amino}-3-hydroxypropyl]sulfanyl}-2-oxo-1,2-dihydropyridin-3-yl)-Nα-(methoxycarbonyl)-β-phenyl-L-phenyl alaninamide] | 0.06 | 2500 |  | 
9 | [2H]C([2H])([2H])C([2H])(C([2H])([2H])[2H])C([2H])([2H])N([C@H](CO)C([2H])([2H])C([2H])([2H])c1ccccc1NC(=O)[C@@H](NC(=O)OC)C(c1ccccc1)c1ccccc1)S(=O)(=O)c1ccc2ncsc2c1 [Example 22, N-(2-{(3S)-3-[(1,3-benzothiazol-6-ylsulfonyl)(2-methylpropyl-d7)amino]-1-d2-2-d2-4-hydroxybutyl}phenyl)-Nα-(methoxycarbonyl)-β-phenyl-L-phenylalaninamide] | 1.7 |  |  | 
10 | COC(=O)N[C@H](C(=O)Nc1ccccc1SC[C@@H](CO)N(CCC(C)C)S(=O)(=O)c1ccc(N)cc1)C(c1ccccc1)c1ccccc1 [Example 28, N-(2-{[(2R)-2-{[(4-aminophenyl)sulfonyl](3-methylbutyl)amino}-3-hydroxypropyl]sulfanyl}phenyl)-Nα-(methoxycarbonyl)-β-phenyl-L-phenylalaninamide] | 0.1 | 194 |  | 
11 | COC(=O)N[C@H](C(=O)Nc1ccccc1CC[C@@H](CO)N(Cc1cncnc1C)S(=O)(=O)c1ccc(N)cc1)C(c1ccccc1)c1ccccc1 [Example 5, N-{2-[(3S)-3-{[(4-aminophenyl)sulfonyl][(4-methylpyrimidin-5-yl)methyl]amino}-4-hydroxybutyl]phenyl}-Nα-(methoxycarbonyl)-β-phenyl-L-phenylalaninamide] |  | 1190 |  | 0.7
12 | COC(=O)N[C@H](C(=O)Nc1cnccc1SC[C@@H](CO)N(Cc1cn(C)nc1C)S(=O)(=O)c1ccc2ncsc2c1)C(c1ccccc1)c1ccccc1 [Example 26, N-(4-{[(2R)-2-{(1,3-benzothiazol-6-ylsulfonyl)[(1,3-dimethyl-1H-pyrazol-4-yl)methyl]amino)-3-hydroxypropyl)sulfanyl}pyridin-3-yl)-Nα-(methoxycarbonyl)-β-phenyl-L-phenylalaninamide] | 0.4 | 1260 |  | 
13 | COC(=O)N[C@H](C(=O)Nc1ccccc1CC[C@@H](CO)N(C(C)C)S(=O)(=O)c1ccc(N)cc1)C(c1ccccc1)c1ccccc1 [Example 2, N-{2-[(3S)-3-{[(4-aminophenyl)sulfonyl](propan-2-yl)amino}-4-hydroxybutyl]phenyl}-Nα-(methoxycarbonyl)-β-phenyl-L-phenylalaninamide] |  | 919 |  | 1.2
14 | COC(=O)N[C@H](C(=O)Nc1ccccc1[S+]([O-])C[C@@H](CO)N(CCC(C)C)S(=O)(=O)c1ccc(N)cc1)C(c1ccccc1)c1ccccc1 (stereo partly drawn) [Example 30, N-(2-{[(2R)-2-{[(4-aminophenyl)sulfonyl](3-methylbutyl)amino}-3-hydroxypropyl]sulfinyl}phenyl)-Nα-(methoxycarbonyl)-β-phenyl-L-phenyl alaninamide] | 2.1 | 1780 |  | 
15 | COC(=O)N[C@@H](Cc1ccccc1Cl)C(=O)Nc1ccccc1CC[C@@H](CO)N(CCC(C)C)S(=O)(=O)c1ccc2ncsc2c1 [Example 16, N-(2-{(3S)-3-[(1,3-benzothiazol-6-ylsulfonyl)(3-methylbutyl)amino]-4-hydroxybutyl}phenyl)-2-chloro-Nα-(methoxycarbonyl)-L-phenylalaninamide] | 8.1 |  |  | 
16 | COC(=O)N[C@@H](Cc1ccccc1Cl)C(=O)Nc1ccccc1CC[C@@H](CO)N(Cc1cn(C)nc1C)S(=O)(=O)c1ccc2ncsc2c1 [Example 17, N-{2-[(3S)-3-{(1,3-benzothiazol-6-ylsulfonyl)[(1,3-dimethyl-1H-pyrazol-4-yl)methyl]amino}-4-hydroxybutyl]phenyl}-2-chloro-Nα-(methoxycarbonyl)-L-phenylalaninamide] | 10 |  |  | 
17 | [2H]C([2H])(c1ccccc1NC(=O)[C@@H](NC(=O)OC)C(c1ccccc1)c1ccccc1)C([2H])([2H])[C@@H](CO)N(CC(C)C)S(=O)(=O)c1ccc2ncsc2c1 [Example 21, N-(2-{(3S)-3-[(1,3-benzothiazol-6-ylsulfonyl)(2-methylpropyl)amino]-1-d2-2-d2-4-hydroxybutyl}phenyl)-Nα-(methoxycarbonyl)-β-phenyl-L-phenylalaninamide] | 3.7 |  |  | 
18 | [2H]C([2H])([2H])C([2H])([2H])N([C@H](CO)Cc1cccc(NC(=O)[C@@H](NC(=O)OC)C(c2ccccc2)c2ccccc2)c1)S(=O)(=O)c1ccc(N)cc1 [Example 33, N-{3-[(2S)-2-{[(4-aminophenyl)sulfonyl](ethyl-d5)amino}-3-hydroxypropyl]phenyl}-Nα-(methoxycarbonyl)-β-phenyl-L-phenylalaninamide] | 50.2 |  |  | 
19 | COC(=O)N[C@H](C(=O)Nc1ccccc1CC[C@@H](CO)N(CC(C)C)S(=O)(=O)c1ccc2ncsc2c1)C(c1ccccc1)c1ccccc1 [Example 7, N-(2-{(3S)-3-[(1,3-benzothiazol-6-ylsulfonyl)(2-methylpropyl)amino]-4-hydroxybutyl}phenyl)-Nα-(methoxycarbonyl)-β-phenyl-L-phenylalaninamide] | 1.6 |  |  | 
